Assay [1] addresses Transient receptor potential cation channel subfamily V member 1 (Rattus norvegicus) (UniProt O35433). The experiment in a line: Agonist activity at rat TRPV1 expressed in CHO cells by 45Ca2+ uptake assay relative to capsaicin. Format: functional, cell-based.
For assay [2], the target named is T1, Transient receptor potential cation channel subfamily V member 1 (Rattus norvegicus, UniProt O35433). The experiment in a line: Agonist activity at rat TRPV1 expressed in CHO cells by 45Ca2+ uptake assay. Type of assay: functional, cell-based.
In assay [3] the target is T1, Transient receptor potential cation channel subfamily V member 1. The experiment in a line: Displacement of [3H]resiniferatoxin from rat TRPV1 expressed in CHO cells by scintillation counting. Type of assay: cell-based. A general note: Loss of bound radioactivity is the signal in a displacement assay; it reports binding, not function.
For assay [4] the target is unchanged. The experiment in a line: Antagonist activity at rat TRPV1 expressed in CHO cells assessed as capsaicin-stimulated 45Ca2+ uptake. Type of assay: functional, cell-based.

T1 sequence (O35433 whole entry): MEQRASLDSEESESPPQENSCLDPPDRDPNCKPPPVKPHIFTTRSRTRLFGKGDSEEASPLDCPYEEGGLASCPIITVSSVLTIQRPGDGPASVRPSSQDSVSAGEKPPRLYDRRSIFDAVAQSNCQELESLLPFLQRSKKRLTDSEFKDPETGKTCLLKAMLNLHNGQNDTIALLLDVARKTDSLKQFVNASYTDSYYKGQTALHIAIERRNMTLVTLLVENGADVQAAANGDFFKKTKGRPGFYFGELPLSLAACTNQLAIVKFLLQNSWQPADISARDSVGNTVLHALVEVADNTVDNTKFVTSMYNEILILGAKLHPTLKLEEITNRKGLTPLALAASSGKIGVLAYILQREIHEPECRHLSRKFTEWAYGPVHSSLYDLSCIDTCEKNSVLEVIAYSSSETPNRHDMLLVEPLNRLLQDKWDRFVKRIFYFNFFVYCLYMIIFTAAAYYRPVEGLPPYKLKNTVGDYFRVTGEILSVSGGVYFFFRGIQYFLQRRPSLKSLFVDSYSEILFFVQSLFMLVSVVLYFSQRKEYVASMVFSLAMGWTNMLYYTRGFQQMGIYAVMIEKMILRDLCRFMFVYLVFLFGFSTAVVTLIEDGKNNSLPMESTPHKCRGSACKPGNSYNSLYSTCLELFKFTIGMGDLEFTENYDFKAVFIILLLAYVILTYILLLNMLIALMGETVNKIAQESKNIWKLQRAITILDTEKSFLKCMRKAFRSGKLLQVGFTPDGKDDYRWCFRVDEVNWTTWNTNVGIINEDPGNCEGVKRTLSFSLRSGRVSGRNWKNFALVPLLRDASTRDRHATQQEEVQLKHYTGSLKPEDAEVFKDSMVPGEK
Sequence of Transient receptor potential cation channel subfamily V member 1 (Rattus norvegicus) (O35433 whole entry): as above

As to `COc1cc(CNC(=S)NCc2ccc(C(C)(C)C)cc2)ccc1NS(C)(=O)=O`, the Activity in assay [1] is 17%. The same molecule gave an EC50 in assay [2] of 0.0324 µM.
As for `CC(C)(C)c1ccc(CNC(=S)NC2CCc3cc(NS(C)(=O)=O)ccc32)cc1` (centres undefined), the Ki in assay [3] came out at 0.66 µM; in assay [4], 0.74 µM.
In assay [1], `COc1cc2c(cc1NS(C)(=O)=O)CCCC2NC(=S)NCc1ccc(C(C)(C)C)cc1` (centres undefined) had an Activity of 14%. The same molecule yielded a Ki in assay [3] of 6.9 µM.
In the case of `COc1c(NS(C)(=O)=O)ccc2c1CCCC2NC(=S)NCc1ccc(C(C)(C)C)cc1` (centres undefined), the Ki in assay [3] was 1.75 µM; in assay [4], 4.7 µM.
For `COc1c(NS(C)(=O)=O)ccc2c1CCC2NC(=S)NCc1ccc(C(C)(C)C)cc1` (centres undefined) the same measures were 1.82 µM and 1.69 µM.
For `CC(C)(C)c1ccc(CNC(=S)NC2CCCc3cc(NS(C)(=O)=O)ccc32)cc1` (centres undefined) the same measures were 1.59 µM and 2.64 µM.
On the same counts, the results for `COc1cc2c(cc1NS(C)(=O)=O)CCC2NC(=S)NCc1ccc(C(C)(C)C)cc1` (centres undefined) are 3.37 µM and 25 µM.

The EC50 is the concentration at which the effect is half-maximal. Lower therefore signals greater potency. What is called Ki is the dissociation constant of the complex between target and ligand, obtained from inhibition or displacement.
